Results: patent US20160228575A1, “NARINGENIN COMPLEXES AND METHODS OF USE THEREOF” (THE GENERAL HOSPITAL CORPORATION, priority 2008, published 2016)
“Also recorded” adds a separate entry of the source. Read-outs that look alike come from different tables or passages of the source.

What was measured:
[1] = Intraperitoneal injection of naringenin to SCID mice: survival, liver enzymes, triglycerides; assay type: in vivo
Procedure: Male SCID mice (8 weeks old, 20-25 g) were obtained from Charles River Laboratories (Wilmington, Mass.). Animals were treated in accordance with NIH guidelines, and MGH Subcommittee on Research Animal Care. The mice were allowed free access to laboratory chow and water ad labium. Naringenin was dissolved in 0.5% Tween 20 diluted in saline and given by intraperitoneal injection. Two days following the treatment, animals were sacrificed and blood was withdrawn by cardiac puncture. AST and ALT enzyme levels were assessed as described above. Total triglycerides were measured using a kit purchased from Sigma-Aldrich Chemicals (St. Louis, Mo.) according to the manufacturer's instructions.
To assess naringenin ability to reduce circulating vLDL levels we measured total triglycerides levels in animal plasma.

actin = assay: Actin mRNA level by qPCR in infected Huh7.5.1 cells; assay type: cell-based, human; conditions: naringenin 24 hours
Procedure: (§1) Virus samples collected in each experiment were filtered with a 0.45 μm filter and a volume of 100 μL for each sample was heated at 95° C. for 45 min. The reverse transcription reaction step was performed on a Mastercycler epgrdientS (Eppendorf) instrument using Omniscript and Sensiscript RT Kits (Qiagen). Real time PCR was performed on a Light Cycler LC-24 (Idaho Technology), using SuperScript™ III Platinum® CellsDirect Two-Step qRT-PCR Kits (Invitrogen) for quantitative PCR. For reverse transcription step, 2 μL of sample without RNA extraction were used. For real time PCR, 1 μL of the reverse transcription reactions was used. All reactions were performed according to the manufacturer's instructions using the primers detailed in Table 1.

PPARα = PPARα transcription in infected Huh7.5.1 cells; assay type: cell-based, human; conditions: short term 24 hours stimulation of Huh7.5.1 cells
Procedure: as §1
PPARα and LXRα are ligand-activated transcription factors which control much of the fasted-to-fed transition and were previously shown to be important in the development of inflammation and insulin resistance. […] Following a short term 24 hours stimulation of Huh7.5.1 cells PPARα transcription increased by 86%, while LXRα was decreased by 25%. PPARα is the target of fibrates and plays a major role in the downregulation of inflammation, increasing sensitivity to insulin, and modulating dyslipidemia.

[2] = rats, intraperitoneal injection; cited from earlier work
Caco-2 cell monolayer = assay: Transport across Caco-2 cell monolayer (apical to basolateral); assay type: in vitro ADME; conditions: human, Caco-2, 2 h, pH 7.35
Procedure: The Caco-2 cell line is an immortalized line of human epithelial colorectal adenocarcinoma cells, which is widely used by the pharmaceutical industry to predict the absorption rate of candidate drug compounds across the intestinal epithelial cell barrier. Caco-2 cells were grown and allowed to form confluent monolayers on transwell filters for 21 days as previously described^39. In detail, Caco-2, human epithelial colorectal adenocarcinoma cells were cultured in tissue culture flasks (Becton Dickinson and Co., Lincoln Park, N.J.). The growth medium was Dulbecco's modified Eagle's medium supplemented with 10% fetal bovine serum, 1% nonessential amino acids, and 4 mM glutamine without antibiotics. The monolayer cultures were grown in a CO2 incubator (5% CO2) at 37° C. The cells were harvested with 0.25% trypsin and 0.2% EDTA (0.5 to 1 min at 37° C.), resuspended, and seeded into a new flask. Cells between 30 to 53 passages were used.
For the transport studies, Caco-2 cells were seeded on Transwell (0.4-μm pore size, 1-cm^2 growth area; Corning Costar Co.) at a cell density of 1×10^5 cells/filter. Cell growth and maintenance was kept as previously described (98). […] The concentrations of Naringenin or HPbCD-Neringenin were determined as described and plotted as a concentration on the basolateral side vs. time. […]

[3] = oral; cited from earlier work
ACAT1 = ACAT1 mRNA level by qPCR in infected Huh7.5.1 cells; assay type: cell-based, human; conditions: naringenin 24 hours
S-180 sarcoma cell line = conditions: intraperitoneal or peroral injection once a day for 5 days, mice, cited from earlier work
[4] = biological target: T1, Microsomal triglyceride transfer protein (MTP) (Homo sapiens, UniProt P55157); assay: Microsomal triglyceride transfer protein (MTP) activity assay in Huh7.5.1 cell homogenates; assay type: cell-based; conditions: Huh-7.5.1, 24 hours stimulation of Huh7.5.1 cells
T1 construct: The MTP assay was performed by incubating 50 μg cellular protein with 10 μl of donor and acceptor solutions; endogenous in cells; host or cells: Huh7.5.1 human hepatoma cells (sonicated homogenate, 50 µg cellular protein)
T1 sequence (P55157 19-894): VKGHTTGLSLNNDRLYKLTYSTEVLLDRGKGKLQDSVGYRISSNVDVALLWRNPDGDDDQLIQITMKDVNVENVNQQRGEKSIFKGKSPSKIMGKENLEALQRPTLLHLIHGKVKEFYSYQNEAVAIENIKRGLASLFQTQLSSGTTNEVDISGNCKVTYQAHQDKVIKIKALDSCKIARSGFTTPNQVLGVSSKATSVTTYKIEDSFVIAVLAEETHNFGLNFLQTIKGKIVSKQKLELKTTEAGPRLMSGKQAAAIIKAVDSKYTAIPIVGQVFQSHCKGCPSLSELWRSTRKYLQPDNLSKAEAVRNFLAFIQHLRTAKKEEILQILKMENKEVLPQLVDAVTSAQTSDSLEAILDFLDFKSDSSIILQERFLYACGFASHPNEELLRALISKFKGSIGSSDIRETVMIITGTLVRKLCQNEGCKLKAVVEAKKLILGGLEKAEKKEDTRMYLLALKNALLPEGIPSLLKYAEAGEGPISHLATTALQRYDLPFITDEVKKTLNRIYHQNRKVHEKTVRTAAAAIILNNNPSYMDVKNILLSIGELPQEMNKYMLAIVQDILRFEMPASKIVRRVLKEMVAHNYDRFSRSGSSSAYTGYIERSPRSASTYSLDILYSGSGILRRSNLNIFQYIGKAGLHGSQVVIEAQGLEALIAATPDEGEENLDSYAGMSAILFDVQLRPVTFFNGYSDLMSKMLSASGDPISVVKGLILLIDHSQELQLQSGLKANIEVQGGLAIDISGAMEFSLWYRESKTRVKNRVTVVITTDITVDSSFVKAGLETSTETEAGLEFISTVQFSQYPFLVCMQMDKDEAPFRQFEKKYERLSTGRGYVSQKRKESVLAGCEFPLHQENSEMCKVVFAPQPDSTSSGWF
T1 sequence (P07237 18-508 partner): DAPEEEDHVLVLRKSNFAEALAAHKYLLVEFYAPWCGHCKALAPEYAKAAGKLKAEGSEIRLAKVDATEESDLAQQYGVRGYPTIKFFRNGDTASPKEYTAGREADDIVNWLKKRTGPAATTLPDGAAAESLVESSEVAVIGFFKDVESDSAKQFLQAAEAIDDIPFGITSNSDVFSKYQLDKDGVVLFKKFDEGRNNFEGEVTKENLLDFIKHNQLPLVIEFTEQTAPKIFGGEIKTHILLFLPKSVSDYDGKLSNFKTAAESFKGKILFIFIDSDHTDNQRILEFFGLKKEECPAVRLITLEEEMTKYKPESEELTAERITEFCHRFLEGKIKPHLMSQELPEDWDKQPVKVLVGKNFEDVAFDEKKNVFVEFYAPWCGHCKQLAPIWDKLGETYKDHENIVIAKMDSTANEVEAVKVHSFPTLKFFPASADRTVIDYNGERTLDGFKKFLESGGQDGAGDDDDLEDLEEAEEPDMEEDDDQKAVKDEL
Procedure: MTP activity was analyzed using an MTP assay kit as previously described (11). The assay is based on a transfer of a fluorescent signal between donor and acceptor particles due to MTP activity. Briefly, confluent Huh7.5.1 cells stimulated with naringenin or carrier control for 24 hours then washed with ice cold PBS and scraped off the dish using a cell scraper. Samples were homogenized by sonication (3×5 sec) in buffer containing protease inhibitors. The MTP assay was performed by incubating 50 μg cellular protein with 10 μl of donor and acceptor solutions in 250 μl total buffer (15 mM Tris pH 7.4; 40 mM NaCl; 1 mM EDTA). Increase in fluoresecent signal was measured over 12 hours at 37° C. at the excitation wavelength of 465 nm and emission wavelength of 538 nm.

Compound: O=C1C[C@@H](c2ccc(O)cc2)Oc2cc(O)cc(O)c21 [naringenin]
- ALT levels in plasma ([1]; 48 hrs following i.p. injection, all doses): no elevation
- AST levels in plasma ([1]; 48 hrs following i.p. injection, even at the highest dose (1500 mg/kg)): under 100 U/l
- total triglycerides in animal plasma ([1]; following i.p. naringenin injection): decrease
- animal survival ([1]; intraperitoneal injection, 60, 300, 1500 mg/kg, male SCID mice): not affected; also recorded: did not cause death
- actin mRNA level (actin): remained unchanged
- increase of PPARα transcription (PPARα): 86%
- LD50 (50% kill) [2]: 2000 mg/kg
- maximal naringenin concentration in basal chamber (Caco-2 cell monolayer): 0.05 mM
- absorbance through the intestinal wall (intestinal absorption) [3]: about 6%
- ACAT1 mRNA level (ACAT1): remained unchanged
- tumor growth of S-180 sarcoma (S-180 sarcoma cell line): significantly inhibit
- tumor growth of S-180 sarcoma (S-180 sarcoma cell line; listed as Naringenin): significantly inhibits
- inhibition at 200 µM [4]: 58%
